One test concerns THP1 cells. Briefly: Combination drug screening, Cell Titer Glo, THP1 cells.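 For all read-outs here: luminescence read out in 1536-well plates seeded with 500 THP1 cells per well, each drug spanning a 10-point concentration range in the combination matrix.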 The following applies: THP1 cells; for Excess HSA Score: sum score, 10 × 10 dataset, 48 hours. Background: Cellular ATP, detected with luciferase, serves as a proxy for viable cell number.
In the next test the test system is MOLM14 (D835Y) cells. Description: Combination drug screening, Cell Titer Glo, MOLM14 (D835Y) cells.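 For all read-outs here: MOLM14 cells with FLT3 ITD plus D835Y, 500 per well in 1536-well plates, 10-point dose ranges, luminescent viability after 48 h, negative Excess HSA indicates synergy.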 To be noted: MOLM14(D835Y) cells; for Excess HSA Score: sum score, listed as compound in combination with Compound 106, 48 hours.
[1] abbreviates: listed as compound in combination with CG-806 (a FLT3/BTK inhibitor).
[2] abbreviates: listed as compound in combination with Compound 45a.
[3] abbreviates: listed as compound in combination with Compound 46a.
The mark [4] stands for this setting: listed as compound in combination with Compound 47a.
[5] abbreviates: listed as compound in combination with Compound 48a.
Setting [6] is: listed as compound in combination with Compound 102.
[7] abbreviates: listed as compound in combination with Compound 106.
The mark [8] stands for this setting: listed as compound in combination with Gilteritinib (a FLT3/AXL inhibitor).
[9] abbreviates: listed as compound in combination with PF-06650833 (an IRAK4 selective inhibitor).
Where [10] appears, read: listed as compound in combination with Quizartinib (a FLT3/Kit/PDGFRa inhibitor).
[11] abbreviates: listed as compound in combination with emavusertib (CA-4948) (a FLT3/IRAK4 inhibitor).
[12] abbreviates: combination therapy of CG-806 (a FLT3/BTK inhibitor) and the named additional compound, 110 × 10 dataset.
Where [13] appears, read: combination therapy of Compound 45a and the named additional compound, 110 × 10 dataset.
Where [14] appears, read: combination therapy of Compound 46a and the named additional compound, 110 × 10 dataset.
Where [15] appears, read: combination therapy of Compound 47a and the named additional compound, 110 × 10 dataset.
Where [16] appears, read: combination therapy of Compound 48a and the named additional compound, 110 × 10 dataset.
[17] abbreviates: combination therapy of Compound 102 and the named additional compound, 10 × 10 dataset.
[18] abbreviates: combination therapy of Gilteritinib (a FLT3/AXL inhibitor) and the named additional compound, 110 × 10 dataset.
The mark [19] stands for this setting: combination therapy of PF-06650833 (an IRAK4 selective inhibitor) and the named additional compound, 110 × 10 dataset.
[20] abbreviates: combination therapy of Quizartinib (a FLT3/Kit/PDGFRa inhibitor) and the named additional compound, 110 × 10 dataset.
Where [21] appears, read: combination therapy of emavusertib (CA-4948) (a FLT3/IRAK4 inhibitor) and the named additional compound, 110 × 10 dataset.

Procedure for MOLM14 (D835Y) cells: Briefly, 10 nL of the compound shown below was acoustically dispensed into 1536-well white polystyrene tissue culture-treated plates with an Echo 550 acoustic liquid handler (Labcyte). Cells were then added to compound-containing plate at a density of 500-cells/well in 5 μL of medium. A 6-point or 10-point custom concentration range was used for all listed drugs. Plates were incubated for 48 hours at standard incubator conditions covered by a stainless steel gasketed lid to prevent evaporation. 48h post compound addition, 3 μL of Cell Titer Glo (Promega) were added to each well and plates were incubated at room temperature for 15 minutes with the stainless-steel lid in place. Luminescence readings were taken using a Viewlux imager (PerkinElmer) with a 2 second exposure time per plate.
A smaller concentration indicates higher potency to synergize with Venetoclax.
A smaller concentration indicates higher potency to synergize with azacitidine.
(§1) This is a cell line that has the FLT3 ITD mutation but also the FLT3 D835Y kinase domain mutation. […] Excess HSA is a measure of synergy vs. additivity or antagonism, wherein a negative Excess HSA value is indicative of synergy.
Source text for THP1 cells: A smaller concentration indicates higher potency to synergize with Venetoclax. […] The numbers in each cell represent the % response (left) or the Delta Bliss score (right) at each given concentration combination.
A smaller concentration indicates higher potency to synergize with azacitidine. […] The numbers in each cell represent the % response (left) or the Delta Bliss score (right) at each given concentration combination.
as §1
Briefly, 10 nL of compounds were acoustically dispensed into 1536-well white polystyrene tissue culture-treated plates with an Echo 550 acoustic liquid handler (Labcyte). MOLM14 (D835Y) or THP1 cells were then added to compound-containing plates at a density of 500-cells/well in 5 μL of medium. A 10-point custom concentration range was used for all listed drugs. […] 48h post compound addition, 3 μL of Cell Titer Glo (Promega) were added to each well and plates were incubated at room temperature for 15 minutes with the stainless-steel lid in place. Luminescence readings were taken using a Viewlux imager (PerkinElmer) with a 2 second exposure time per plate.

For the molecule `Nc1cccc2c1CN(C1CCC(=O)NC1=O)C2=O` (stereo not shown) [Lenalidomide], the “Excess HSA Score” value is recorded as 534 in the test on THP1 cells (setting [1]); −245.1 in the test with THP1 cells (setting [2]); 533.2 with THP1 cells (setting [3]); 188.9 in the test with THP1 cells (setting [4]); −51.13 in the test with THP1 cells (setting [5]); 12.2 in the test with THP1 cells (setting [6]). Also, the “Excess HSA Score” value in the test with THP1 cells (setting [7]) was 386.8; in the test with THP1 cells (setting [8]), 355; with THP1 cells (setting [9]), 74.4868; in the test with THP1 cells (setting [10]), 472.5204; in the test with THP1 cells (setting [11]), 1167; in the test with MOLM14 (D835Y) cells (10 × 10 dataset), 754.6. The “Sum Excess HSA Score” value in the test with MOLM14 (D835Y) cells (setting [12]) amounted to 141.5; with MOLM14 (D835Y) cells (setting [13]) it was 784.7; with MOLM14 (D835Y) cells (setting [14]) it was 12.1; in the test with MOLM14 (D835Y) cells (setting [15]), 868.6; in the test with MOLM14 (D835Y) cells (setting [16]), 405.4; in the test on MOLM14 (D835Y) cells (setting [17]) it was 59.07. Besides, the “Sum Excess HSA Score” value is 527.6728 in the test with MOLM14 (D835Y) cells (setting [18]), −429.8 in the test with MOLM14 (D835Y) cells (setting [19]), 565.7343 in the test on MOLM14 (D835Y) cells (setting [20]) and 390.3 in the test with MOLM14 (D835Y) cells (setting [21]).
Turning to `CC(=O)c1c(C)c2cnc(Nc3ccc(N4CCNCC4)cn3)nc2n(C2CCCC2)c1=O` [Palbociclib], the Comments result in the test on THP1 cells (combination with Quizartinib) is recorded as “Synergistic (a negative Excess HSA value is indicative of synergy)”. Also, the “Excess HSA Score” value in the test on THP1 cells (setting [1]) is given as −368.3; in the test on THP1 cells (setting [2]), −912.2; in the test on THP1 cells (setting [3]), −907.6; in the test on THP1 cells (setting [4]), −166.9; in the test with THP1 cells (setting [5]) it was −166.7; in the test on THP1 cells (setting [6]) it was −116.5. Moreover, the “Excess HSA Score” value in the test on THP1 cells (setting [7]) is given as −590.5; in the test on THP1 cells (setting [8]), −826.9; in the test on THP1 cells (setting [9]), −610; with THP1 cells (setting [10]), −794.7; in the test on THP1 cells (setting [11]) it was 190.2; in the test with MOLM14 (D835Y) cells (10 × 10 dataset), −252.8. In addition, the “Sum Excess HSA Score” value in the test with MOLM14 (D835Y) cells (setting [12]) is on record as −246; in the test on MOLM14 (D835Y) cells (setting [13]) it was −715.3; with MOLM14 (D835Y) cells (setting [14]) it was −844.8; in the test with MOLM14 (D835Y) cells (setting [15]) it was −616.3; with MOLM14 (D835Y) cells (setting [16]), −583.3; in the test on MOLM14 (D835Y) cells (setting [17]), −537.2. The “Sum Excess HSA Score” value in the test with MOLM14 (D835Y) cells (setting [18]) is −576.9; with MOLM14 (D835Y) cells (setting [19]), 94.98; in the test on MOLM14 (D835Y) cells (setting [20]), −1120; in the test with MOLM14 (D835Y) cells (setting [21]), −557.8.
In the case of `C[C@]12C=CC(=O)C=C1CC[C@@H]1[C@@H]2[C@@H](O)C[C@@]2(C)[C@H]1CC[C@]2(O)C(=O)CO` [Prednisolone, prednisolone], the “Excess HSA Score” value is 335.9 in the test with THP1 cells (setting [1]); 438.5 in the test with THP1 cells (setting [2]); 174.9 with THP1 cells (setting [3]); 134.6 in the test with THP1 cells (setting [4]); 511.8 in the test on THP1 cells (setting [5]); 26.91 in the test on THP1 cells (setting [6]). For the same molecule, the “Excess HSA Score” value in the test on THP1 cells (setting [7]) is given as 274.3; with THP1 cells (setting [8]) it was −110.9078; in the test with THP1 cells (setting [9]), −254.8; in the test with THP1 cells (setting [10]) it was −81.1; in the test on THP1 cells (setting [11]), 70.05; in the test with MOLM14 (D835Y) cells (10 × 10 dataset), −5.273. Moreover, the “Sum Excess HSA Score” value is reported as −218 in the test on MOLM14 (D835Y) cells (setting [12]); −106.5 with MOLM14 (D835Y) cells (setting [13]); −52.71 in the test on MOLM14 (D835Y) cells (setting [14]); −58.8974 with MOLM14 (D835Y) cells (setting [15]); −339.3 in the test with MOLM14 (D835Y) cells (setting [16]); −260.2 with MOLM14 (D835Y) cells (setting [17]). The “Sum Excess HSA Score” value in the test with MOLM14 (D835Y) cells (setting [18]) is recorded as −583.8; in the test with MOLM14 (D835Y) cells (setting [19]), −431.6; in the test with MOLM14 (D835Y) cells (setting [20]), 213.4; in the test on MOLM14 (D835Y) cells (setting [21]), −4.3456.
For `CCN(C(=O)c1cc(F)ccc1Oc1cncnc1N1CC2(CCN(C[C@H]3CC[C@H](NS(=O)(=O)CC)CC3)CC2)C1)C(C)C` [SNDX-5613], the “Excess HSA Score” value is 321.1921 in the test on THP1 cells (setting [1]); 434.8 with THP1 cells (setting [2]); 262.8 in the test on THP1 cells (setting [3]); 247.1 with THP1 cells (setting [4]); 138.2 in the test with THP1 cells (setting [5]); 156.4 in the test on THP1 cells (setting [6]). Moreover, the “Excess HSA Score” value in the test with THP1 cells (setting [7]) is 375.4; in the test with THP1 cells (setting [8]), 306.1; in the test on THP1 cells (setting [9]), −120; in the test with THP1 cells (setting [10]), 413.2; in the test on THP1 cells (setting [11]), 468.5; with MOLM14 (D835Y) cells (10 × 10 dataset) it was −210.8. In addition, the “Sum Excess HSA Score” value with MOLM14 (D835Y) cells (setting [12]) is on record as −1.886; in the test on MOLM14 (D835Y) cells (setting [13]), −24.88; in the test with MOLM14 (D835Y) cells (setting [14]), −263.9; in the test on MOLM14 (D835Y) cells (setting [15]), −358.8; with MOLM14 (D835Y) cells (setting [16]), −804.1; in the test on MOLM14 (D835Y) cells (setting [17]), −748.9985. For the same molecule, the “Sum Excess HSA Score” value is on record as 47.75 in the test with MOLM14 (D835Y) cells (setting [18]), −301.3 in the test with MOLM14 (D835Y) cells (setting [19]), −724.1 in the test on MOLM14 (D835Y) cells (setting [20]) and −321 in the test with MOLM14 (D835Y) cells (setting [21]).
Consider `C[C@@H]1OCC2(CCN(c3cnc(Sc4ccnc(N)c4Cl)c(N)n3)CC2)[C@@H]1N` [TNO-155], for which the “Excess HSA Score” value in the test on THP1 cells (setting [1]) is on record as −198.4; with THP1 cells (setting [2]) it was 64.74; in the test with THP1 cells (setting [3]) it was 591.7; with THP1 cells (setting [4]), 207; in the test with THP1 cells (setting [5]), −3.87; in the test with THP1 cells (setting [6]), 485.0784. For the same molecule, the “Excess HSA Score” value with THP1 cells (setting [7]) is −22.86; in the test on THP1 cells (setting [8]), 394.2; with THP1 cells (setting [9]), −194.1; in the test with THP1 cells (setting [10]) it was 587.7; in the test with THP1 cells (setting [11]), 527.1; in the test on MOLM14 (D835Y) cells (10 × 10 dataset), −943.9. Besides, the “Sum Excess HSA Score” value with MOLM14 (D835Y) cells (setting [12]) is given as −753.6; with MOLM14 (D835Y) cells (setting [13]), −1028; in the test with MOLM14 (D835Y) cells (setting [14]), −1041.6332; in the test with MOLM14 (D835Y) cells (setting [15]), −1163; in the test on MOLM14 (D835Y) cells (setting [16]), −1024; in the test on MOLM14 (D835Y) cells (setting [17]), −510.7. Further, the “Sum Excess HSA Score” value in the test with MOLM14 (D835Y) cells (setting [18]) is −895.7; with MOLM14 (D835Y) cells (setting [19]), −773.7; in the test with MOLM14 (D835Y) cells (setting [20]), −1091; in the test on MOLM14 (D835Y) cells (setting [21]), −470.2.
As for `CC(C)Nc1cc(-c2c[nH]c(C(=O)N[C@H](CO)c3cccc(Cl)c3)c2)c(Cl)cn1` [Ulixertinib, ulixertinib], the “Excess HSA Score” value is recorded as 518 with THP1 cells (setting [1]); −14.94 with THP1 cells (setting [2]); 260.4 in the test with THP1 cells (setting [3]); −663.3 in the test on THP1 cells (setting [4]); −24.53 in the test with THP1 cells (setting [5]); −301.9 with THP1 cells (setting [6]). Further, the “Excess HSA Score” value in the test with THP1 cells (setting [7]) is −630.1436; in the test with THP1 cells (setting [8]), 690.556; in the test on THP1 cells (setting [9]), 552.8; with THP1 cells (setting [10]) it was −530.2; in the test with THP1 cells (setting [11]), −230.3; in the test with MOLM14 (D835Y) cells (10 × 10 dataset), −71.53. In addition, the “Sum Excess HSA Score” value is on record as 258.3 in the test on MOLM14 (D835Y) cells (setting [12]); 554.5 in the test on MOLM14 (D835Y) cells (setting [13]); −208.5 in the test with MOLM14 (D835Y) cells (setting [14]); 112.6 with MOLM14 (D835Y) cells (setting [15]); −576.8 in the test on MOLM14 (D835Y) cells (setting [16]); −768.5 with MOLM14 (D835Y) cells (setting [17]). The “Sum Excess HSA Score” value in the test with MOLM14 (D835Y) cells (setting [18]) was 29.29; with MOLM14 (D835Y) cells (setting [19]), 548.6; in the test on MOLM14 (D835Y) cells (setting [20]), 1180; in the test on MOLM14 (D835Y) cells (setting [21]), −352.8.

The values are drawn from patent publication US20250368648A1, “MULTI-CYCLIC IRAK AND FLT3 INHIBITING COMPOUNDS AND USES THEREOF” (CHILDREN'S HOSPITAL MEDICAL CENTER, priority 2022, published 2025).
